Results taken from ChEMBL document CHEMBL1201862, “PubChem BioAssay data set” (2004).
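1) Cells in 96-well plates. 2) Compound, 48 h, 5 concentrations. 3) Linear interpolation between surrounding doses. 4) Unreached endpoint = highest concentration. Here, GI50 denotes the concentration required for 50% inhibition of growth.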 The source made the active and inactive calls. Rule as the data show it: active = GI50 up to about 1.1 µM and inactive = higher.

Legend:
Assay in all cases: DTP human tumour cell line panel, 48 h
ACHN = system: ACHN
786-0 = system: 786-0
KM12 = system: KM12
MCF7 = system: MCF7
OVCAR-3 = system: OVCAR-3
OVCAR-4 = system: OVCAR-4
TK-10 = system: TK-10
A549 = system: A549
UACC-62 = system: UACC-62
A498 = system: A498
HOP-92 = system: HOP-92
CCRF-CEM = system: CCRF-CEM
MDA-N = system: MDA-N
NCI/ADR-RES = system: NCI/ADR-RES
BT-549 = system: BT-549
UACC-257 = system: UACC-257
SR = system: SR
SNB-75 = system: SNB-75
NCI-H226 = system: NCI-H226

SMILES	GI50 (ACHN)	GI50 (786-0)	GI50 (KM12)	GI50 (MCF7)	GI50 (OVCAR-3)	GI50 (OVCAR-4)	GI50 (TK-10)	GI50 (A549)	GI50 (UACC-62)	GI50 (A498)	GI50 (HOP-92)	GI50 (CCRF-CEM)	GI50 (MDA-N)	GI50 (NCI/ADR-RES)	GI50 (BT-549)	GI50 (UACC-257)	GI50 (SR)	GI50 (SNB-75)	GI50 (NCI-H226)
CC(C)c1ccccc1SC1CC(=O)CC(Sc2ccccc2C(C)C)C12O[C@H](c1ccccc1)[C@@H](c1ccccc1)O2 (stereo partly specified)	30.3 µM (inactive)	18.1 µM (inactive)	59.6 µM (inactive)	34 µM (inactive)	32.2 µM (inactive)	61.9 µM (inactive)	85.9 µM (inactive)	> 100 µM (inactive)	28.4 µM (inactive)	> 100 µM (inactive)	95.9 µM (inactive)	13.4 µM (inactive)	20.9 µM (inactive)	47 µM (inactive)	51.1 µM (inactive)	> 100 µM (inactive)	–	–	–
COc1c(C(C)(C)C)cc(CC2C(=O)C=CC2=O)cc1C(C)(C)C	8.47 µM (inactive)	2.86 µM (inactive)	17.4 µM (inactive)	16.7 µM (inactive)	13.9 µM (inactive)	21.2 µM (inactive)	5.92 µM (inactive)	24.3 µM (inactive)	17.9 µM (inactive)	18 µM (inactive)	16.1 µM (inactive)	2.29 µM (inactive)	15.2 µM (inactive)	32 µM (inactive)	23.8 µM (inactive)	17.5 µM (inactive)	3.89 µM (inactive)	–	–
C=C1CC2C[C@H](OS(=O)(=O)c3ccc(C)cc3)C(C1)N2C (stereo partly specified)	–	> 100 µM (inactive)	> 100 µM (inactive)	> 100 µM (inactive)	> 100 µM (inactive)	> 100 µM (inactive)	> 100 µM (inactive)	> 100 µM (inactive)	> 100 µM (inactive)	–	–	> 100 µM (inactive)	> 100 µM (inactive)	> 100 µM (inactive)	> 100 µM (inactive)	> 100 µM (inactive)	> 100 µM (inactive)	61.9 µM (inactive)	> 100 µM (inactive)
O=C(Nc1ccc2nc(O)n[n+]([O-])c2c1)C(F)(F)F	> 100 µM (inactive)	> 100 µM (inactive)	> 100 µM (inactive)	> 100 µM (inactive)	> 100 µM (inactive)	> 100 µM (inactive)	> 100 µM (inactive)	> 100 µM (inactive)	> 100 µM (inactive)	> 100 µM (inactive)	–	> 100 µM (inactive)	> 100 µM (inactive)	> 100 µM (inactive)	> 100 µM (inactive)	> 100 µM (inactive)	> 100 µM (inactive)	> 100 µM (inactive)	> 100 µM (inactive)
CC(C)(C)C(=O)CC1=Nc2ccccc2SC1(O)CC(=O)C(C)(C)C (stereo unspecified)	23.2 µM (inactive)	23.4 µM (inactive)	20.1 µM (inactive)	25 µM (inactive)	17 µM (inactive)	–	64 µM (inactive)	20.5 µM (inactive)	11.8 µM (inactive)	> 100 µM (inactive)	–	8.49 µM (inactive)	32.7 µM (inactive)	21.9 µM (inactive)	15.7 µM (inactive)	37.1 µM (inactive)	11.8 µM (inactive)	–	15.2 µM (inactive)
CCCCCCc1nn2c(-c3ccc(C)cc3)nnc2s1	> 100 µM (inactive)	> 100 µM (inactive)	> 100 µM (inactive)	> 100 µM (inactive)	> 100 µM (inactive)	> 100 µM (inactive)	> 100 µM (inactive)	> 100 µM (inactive)	> 100 µM (inactive)	> 100 µM (inactive)	–	–	> 100 µM (inactive)	> 100 µM (inactive)	> 100 µM (inactive)	42.1 µM (inactive)	–	> 100 µM (inactive)	–
Cc1c(F)c(N)c2c(=O)cc(-c3ccc(NC(=O)CN(C)C)c(F)c3)oc2c1F	> 100 µM (inactive)	39.5 µM (inactive)	32 µM (inactive)	7.29 µM (inactive)	0.0456 µM (active)	23.6 µM (inactive)	18.5 µM (inactive)	89.7 µM (inactive)	26.4 µM (inactive)	10 µM (inactive)	–	21 µM (inactive)	> 100 µM (inactive)	68.7 µM (inactive)	> 100 µM (inactive)	> 100 µM (inactive)	17.6 µM (inactive)	–	11 µM (inactive)
Cc1ncc([N+](=O)[O-])n1CCNC(=O)CCCCn1ccnc1[N+](=O)[O-]	> 100 µM (inactive)	> 100 µM (inactive)	> 100 µM (inactive)	> 100 µM (inactive)	> 100 µM (inactive)	–	–	> 100 µM (inactive)	> 100 µM (inactive)	> 100 µM (inactive)	–	> 100 µM (inactive)	> 100 µM (inactive)	> 100 µM (inactive)	> 100 µM (inactive)	> 100 µM (inactive)	> 100 µM (inactive)	97.5 µM (inactive)	> 100 µM (inactive)
